These results are taken from article PMC2919500 (Biochemistry, 2008).

Read-outs that look alike come from different tables or passages of the source.

For experiment [1], the target named is T1, AKT1 E17K PH domain (Homo sapiens, UniProt P31749, E17K). Kind of experiment: IP6 competitive displacement assay. Conditions: for Ki: read-out: KI(IP6).
Experiment [2] has as its target T2, PLCδ1 PH domain (Mus musculus, UniProt Q8R3B1).
T2 sequence (Q8R3B1 12-142): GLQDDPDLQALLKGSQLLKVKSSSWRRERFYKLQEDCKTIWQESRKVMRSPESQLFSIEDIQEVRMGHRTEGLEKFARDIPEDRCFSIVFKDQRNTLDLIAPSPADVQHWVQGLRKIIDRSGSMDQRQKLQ
Kind of experiment: Direct IP6 titration of the free PH domain. Conditions: read-out: KD(IP6), 25 °C, binding buffer pH 7.4.

The target of experiment [3] is T3, AKT1 PH domain (Homo sapiens, UniProt P31749). Kind of experiment: Direct IP6 titration of the free PH domain. Conditions: read-out: KD(IP6); free WT AKT1 PH domain, 25 °C, binding buffer pH 7.4.
T3 sequence (P31749 1-120): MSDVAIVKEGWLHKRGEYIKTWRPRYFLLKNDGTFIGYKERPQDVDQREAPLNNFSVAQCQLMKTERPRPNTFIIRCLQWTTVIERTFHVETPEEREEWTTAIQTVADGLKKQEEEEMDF
Experiment [4] deals with T2, PLCδ1 PH domain. The experiment can be described thus: IP6 competitive displacement assay.
Experiment [5] has as its target T3, AKT1 PH domain. Kind of experiment: IP6 competitive displacement assay.
The target of experiment [6] is T1, AKT1 E17K PH domain. The experiment can be described thus: Direct IP6 titration of the free PH domain. The format is binding.
The next experiment concerns the target Citrine-AKT1 PH (Homo sapiens, UniProt P31749). The experiment can be described thus: Plasma membrane targeting in live NIH 3T3 cells. The class given is cell-based. Conditions: serum-starved NIH 3T3 cells, 10 nM PDGF 5 min, then 800 nM wortmannin 15 min.
The next experiment addresses T4, CFP-PLCδ1 PH (Homo sapiens, UniProt P51178).
T4 sequence (P51178 21-130 limits assumed): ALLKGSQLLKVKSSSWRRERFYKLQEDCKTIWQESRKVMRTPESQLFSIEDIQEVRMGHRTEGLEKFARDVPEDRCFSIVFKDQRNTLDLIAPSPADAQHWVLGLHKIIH
The experiment can be described thus: Plasma membrane targeting in live NIH 3T3 cells. The class given is cell-based. Conditions: serum starvation with inhibitor prior to imaging, data not shown.

The target in another experiment is RFP-AKT1 E17K PH (Homo sapiens, UniProt P31749, E17K). The experiment can be described thus: Plasma membrane targeting in live NIH 3T3 cells. The format is cell-based. Conditions: serum starvation with inhibitor prior to imaging, data not shown.
Chain of RFP-AKT1 E17K PH (P31749 5-108 E17K limits assumed): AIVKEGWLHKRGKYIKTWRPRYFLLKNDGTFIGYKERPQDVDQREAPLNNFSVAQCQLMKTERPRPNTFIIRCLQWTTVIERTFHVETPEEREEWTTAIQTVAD
The target of experiment [7] is T1, AKT1 E17K PH domain. Kind of experiment: Stopped-flow association and dissociation kinetics.

T1 sequence (P31749 1-120 E17K): as the sequence (P31749 1-120) above, with E17K counted along it
Chain of Citrine-AKT1 PH (P31749 5-108 limits assumed): as the sequence (P31749 5-108 E17K limits assumed) above, with K13E counted along it

For `O=P(O)(O)OC1C(OP(=O)(O)O)C(OP(=O)(O)O)C(OP(=O)(O)O)C(OP(=O)(O)O)C1OP(=O)(O)O` (stereo not drawn) [IP6, inositol 1,2,3,4,5,6-hexakisphosphate], the Ki (commonly the equilibrium dissociation constant of an inhibitor or competing ligand from its target) at AKT1 E17K PH domain [1] (displacement of AKT1 E17K PH from PM(+)PI(3,4,5)P3) was 8000 ± 2000 µM; at AKT1 E17K PH domain [1] (displacement of AKT1 E17K PH from PM(+)PI(4,5)P2), 210 ± 10 µM; on PLCδ1 PH domain [4] (read-out: KI(IP6), displacement of PLCδ1 PH from PM(+)PI(4,5)P2), 47 ± 4 µM; on AKT1 PH domain [5] (read-out: KI(IP6), displacement of AKT1 PH from PM(+)PI(3,4,5)P3), 28000 ± 1000 µM. Further, the Kd worked out at 3 ± 0.2 µM at PLCδ1 PH domain [2]; 260 ± 50 µM on AKT1 PH domain [3]; 11 ± 1 µM at AKT1 E17K PH domain [6] (read-out: KD(IP6), free AKT1 E17K PH domain, 25 °C, binding buffer pH 7.4). For the same compound, the “additional IP6 binding free energy from the E17K mutation” value on AKT1 E17K PH domain [6] (ΔΔG, E17K versus WT AKT1 PH) is 3.0 RT.

Take `COC[C@H]1OC(=O)c2coc3c2[C@@]1(C)C1=C(C3=O)[C@@H]2CCC(=O)[C@@]2(C)C[C@H]1OC(C)=O` [wortmannin]: the “localization of the WT AKT1 PH domain after PI3K inhibition” value at Citrine-AKT1 PH is “returns to the cytoplasm”. For the same compound, the “constitutive plasma membrane targeting in the presence of a PI3K inhibitor” value on CFP-PLCδ1 PH and at RFP-AKT1 E17K PH was “not disrupted” in each case.

For “L-α-phosphatidylinositol 4,5-bisphosphate [PI(4,5)P2]”, the “affinity enhancement by E17K larger than for the other two ligands” value on AKT1 E17K PH domain [1] (PI(4,5)P2 versus IP6 and PI(3,4,5)P3) was “at least 10 fold”. Further, the Kd on AKT1 E17K PH domain [1] (read-out: KD(PIPn), AKT1 E17K PH, PIP lipid embedded in synthetic plasma membrane, from KD(IP6) and KI(IP6)) was 0.13 ± 0.03 µM; at PLCδ1 PH domain [4] (read-out: KD(PIPn), PLCδ1 PH, PIP lipid embedded in synthetic plasma membrane, from KD(IP6) and KI(IP6)), 0.19 ± 0.07 µM; on AKT1 PH domain [5] (read-out: KD(PIPn), WT AKT1 PH, PIP lipid embedded in synthetic plasma membrane, from KD(IP6) and KI(IP6)), > 10 µM; on AKT1 E17K PH domain [7] (read-out: KD (koff/kon), calculated from the rate constants), 0.12 ± 0.01 µM. For the same compound, the kon on AKT1 E17K PH domain [7] (0.5 µM protein, 200 µM total lipid, 25 °C) is given as 1.3 ± 0.1 ×10^7 M^−1 s^−1. Moreover, at AKT1 E17K PH domain [7] (dissociation with excess IP6 (40 mM), 25 °C), the dissociation rate constant (koff) (usually a measure of how fast the partners let go of each other) came out at 1.5 ± 0.1 s⁻¹.
